Results reported in patent US20240343710A1, “HETEROCYCLIC COMPOUNDS AND METHODS OF USE THEREOF” (1cBio, Inc., priority 2023, published 2024).
Counter-ions that a name gives are not always drawn. Like-named read-outs stand apart in the source and are kept apart here.

Legend:
[1] = system: DLD-1 wild-type colorectal adenocarcinoma cells; assay: Cell viability assay (Cell Titer-Glo, 7 days), DLD-1 wild-type; type: cell-based; details: Homo sapiens, 168 h, DLD-1 wild-type cells, read-out: DLD-1 wild-type % inh at 10 μM
Description: (§1) In some embodiments, the biological assay measures the effects that compounds of the present disclosure may have on the viability of cells, e.g., the viability of cancer cells. In some embodiments, DLD-1 wild-type and DLD-1 BRCA2(−/−) colorectal adenocarcinoma cells, an isogenic pair of cell lines differing in the presence and absence, respectively, of both BRCA2 alleles, are used to measure the effect of the disclosed compounds on the viability of cancer cells. In some embodiments, the cells are harvested during the logarithmic growth period, counted, and seeded at a specified count in the wells of a 96- or 384-well cell culture plate. In some embodiments, after seeding, the cells are incubated, e.g., at 37° C., 5% CO2 overnight. In some embodiments, the cells are treated with compounds, e.g., with serially diluted test compounds at 8-11 concentrations within a desired concentration range, e.g., from 1 nM-10 μM, for the generation of dose-response curves. In some embodiments, the plate is further incubated, e.g., for another 3-7 days in a humidified incubator at 37° C. and 5% CO2. In some embodiments, cell viability is assessed by luminescence measurement after addition of Cell Titer-Glo reagent (Promega, Madison, Wis.) according to the manufacturer's instructions. In some embodiments, cell viability IC50 values are calculated using XLFit, equation 201: y=A+((B−A)/(1+((x/C)^D))), where A=bottom, B=top, C=IC50, and D=slope. In some embodiments, the effects of the test compounds on the viability of other cell lines such as MDA-MB-436, MDA-MB-231, SUM149PT, HCC1395, and UWB1.289 are determined in an analogous method.
(§2) Compounds of the present disclosure were tested for their effects on the viability of cancer cells. DLD-1 wild-type and DLD-1 BRCA2(−/−) colorectal adenocarcinoma cells, an isogenic pair of cell lines differing in the presence and absence, respectively, of both BRCA2 alleles, were used. The cells were harvested during the logarithmic growth period, counted, and seeded at 50 cells/well for DLD-1 wild-type and 200 cells/well for DLD-1 BRCA2(−/−) in a 384-well cell culture plate. After seeding, cells were incubated at 37° C., 5% CO2 overnight. Cells were treated with serially diluted test compounds at 10 concentrations (e.g., from 1.5 nM-30 μM) for generation of dose response curves, or at a single concentration. The plate was further incubated for another 7 days in a humidified incubator at 37° C. and 5% CO2. Cell viability was assessed by luminescence measurement after addition of Cell Titer-Glo reagent (Promega, Madison, Wis.) according to the manufacturer's instructions. Cell viability IC50 values were calculated using XLFit, equation 201. y=A+((B−A)/(1+((x/C)^D))), where A=bottom, B=top, C=IC50, and D=slope. IC50 values are shown in Table B and are presented in ranges, in which “+++”<300 nM, 300 nM≤“++”<3000 nM, and “+”≥3000 nM. Values for percent inhibition at 10 μM are also shown in Table B and are presented in ranges, in which “***”≥67%, 33%: “**”≤67%, and “*”<33%. Effects of the test compounds on the viability of other cell lines such as MDA-MB-436, MDA-MB-231, SUM149PT, HCC1395, and UWB1.289 are determined in an analogous method.

recombinant human PARP1 = recombinant human PARP1 (Homo sapiens, UniProt P09874); assay: PARP1 fluorescence polarization binding assay; details: GST-tagged PARP1 20 nM, PARP1-FL probe 3 nM
recombinant human PARP1, sequence (P09874 whole entry): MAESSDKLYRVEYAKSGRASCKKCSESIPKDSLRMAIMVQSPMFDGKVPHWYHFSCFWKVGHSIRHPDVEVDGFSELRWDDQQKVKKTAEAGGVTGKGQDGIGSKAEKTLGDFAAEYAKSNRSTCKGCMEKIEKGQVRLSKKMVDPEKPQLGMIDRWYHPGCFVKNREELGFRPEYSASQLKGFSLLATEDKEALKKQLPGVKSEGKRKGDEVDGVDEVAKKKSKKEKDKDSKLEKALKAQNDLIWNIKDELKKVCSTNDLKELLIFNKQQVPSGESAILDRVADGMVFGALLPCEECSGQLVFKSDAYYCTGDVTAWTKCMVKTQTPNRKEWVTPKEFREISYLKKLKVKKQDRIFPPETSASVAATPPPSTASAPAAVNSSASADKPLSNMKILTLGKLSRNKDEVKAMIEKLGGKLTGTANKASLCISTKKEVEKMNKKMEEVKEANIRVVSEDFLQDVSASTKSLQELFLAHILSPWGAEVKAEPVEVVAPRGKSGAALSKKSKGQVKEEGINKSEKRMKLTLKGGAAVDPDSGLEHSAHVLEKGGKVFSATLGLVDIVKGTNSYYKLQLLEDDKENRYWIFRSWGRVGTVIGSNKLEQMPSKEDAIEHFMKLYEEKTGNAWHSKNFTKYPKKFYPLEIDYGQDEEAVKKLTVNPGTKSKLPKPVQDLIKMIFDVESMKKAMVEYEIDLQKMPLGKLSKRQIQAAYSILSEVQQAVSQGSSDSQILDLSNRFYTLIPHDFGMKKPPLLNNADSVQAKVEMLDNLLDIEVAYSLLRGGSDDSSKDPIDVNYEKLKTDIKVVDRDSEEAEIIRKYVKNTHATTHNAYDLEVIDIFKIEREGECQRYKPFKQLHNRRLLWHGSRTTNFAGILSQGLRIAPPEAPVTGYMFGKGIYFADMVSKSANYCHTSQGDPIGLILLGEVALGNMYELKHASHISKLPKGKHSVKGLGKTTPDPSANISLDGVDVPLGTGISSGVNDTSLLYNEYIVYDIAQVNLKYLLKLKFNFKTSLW
Method: In some embodiments, the biological assay is described in the Examples herein. In some embodiments, the biological assay measures PARP-1 binding by way of fluorescence polarization measurements. In some embodiments, binding of a test compound to recombinant human PARP-1 reduces the amount of binding of a fluorescent probe, and consequently reduces the detected level of fluorescence polarization. In some test compound stock solutions are prepared in a solvent, e.g., DMSO, and are serially diluted into a range of concentrations, e.g., 15 concentrations, 14 concentrations, 13 concentrations, 12 concentrations, 11 concentrations, 10 concentrations, 9 concentrations, 8 concentrations, 7 concentrations, 6 concentrations, or 5 concentrations, by a dilution factor, e.g., a 10-fold dilution factor, a 9-fold dilution factor, an 8-fold dilution factor, a 7-fold dilution factor, a 6-fold dilution factor, a 5-fold dilution factor, a 4-fold dilution factor, a 3-fold dilution factor, or a 2-fold dilution factor. In some embodiments, the serial dilutions, e.g., 100 nL of serial dilution, 90 nL of serial dilution, 80 nL of serial dilution, 70 nL of serial dilution, 60 nL of serial dilution, 50 nL of serial dilution, 30 nL of serial dilution, 20 nL of serial dilution, or 10 nL of serial dilution, are added to a multi-welled plate, e.g., a 1536-well plate, a 384-well plate, or a 96-well plate. In some embodiments, PARP-1, e.g., GST-tagged PARP-1, is diluted in assay buffer, e.g., 50 μL of assay buffer, 40 μL of assay buffer, e.g., 30 μL of assay buffer, 20 μL of assay buffer, 10 μL of assay buffer, or 5 μL of assay buffer, and is added to the plate. In some embodiments, the plate is centrifuged, e.g., at 1000 rpm for 1 min, and incubated, e.g., incubated for 30 minutes at room temperature (RT). In some embodiments, a fluorescent probe, e.g., 10 μL of 6 nM PARP1-FL (TOCRIS, Cat #6461), is diluted in an assay buffer and is added to the plate. In some embodiments, the final concentrations of PARP-1 and fluorescent probe are 20 nM and 3 nM, respectively, in a total volume of 20 μL. In some embodiments, the plate is centrifuged, e.g., at 1000 rpm for 1 minute, and the assay plate is incubated, e.g., for 4 h at RT. In some embodiments, the samples in each well are read using a plate reader, e.g., an Envision instrument using excitation=480 nm, and emission wavelength=FITC FP-P pol 535 nm & FITC FP-S pol 535 nm). In some embodiments, percent inhibition is calculated from mP values using Inhibition (%)=[1−(mPc−mPL)/(mPH−mPL)]×100%, where mPc, mPL, and mPH are the mP values of test compound, Low controls, and High controls, respectively. In some embodiments, binding IC50 values are calculated using XLFit (equation 201: y=A+((B−A)/(1+((x/C)^D))), where A=bottom, B=top, C=IC50, and D=slope) with a floating top and bottom for curves.
Compounds of the present disclosure were tested in a PARP1 fluorescence polarization binding assay at Pharmaron (Beijing, P.R. China). In this biochemical assay, binding of test compound to recombinant human PARP1 reduces the amount of binding of a fluorescent probe, and consequently reduces the detected level of fluorescence polarization. Test compound stock solutions were prepared in DMSO and then serially diluted into 10 concentrations by 3-fold dilution in a 384-well plate using a TECAN EVO200. Alternatively, a single concentration was prepared. 60 nL of each dilution was transferred to the plate using an Echo550 (Labcyte), and then 10 μL 40 nM GST-tagged PARP1 (BPS Bioscience, Cat #80501), diluted in assay buffer (50 mM Tris pH 8.0, 0.001% Triton X-100, 10 mM MgCl2, 150 mM NaCl), was added to the plate. After a centrifugation at 1000 rpm for 1 min, the assay plate was incubated for 30 min at RT. 10 μL 6 nM PARP1-FL (TOCRIS, Cat #6461), diluted using assay buffer, was then added to the plate. The final concentrations of PARP1 and PARP1-FL were 20 nM and 3 nM, respectively, in a total volume of 20 μL. […]

recombinant human PARP2 = recombinant human PARP2 (Homo sapiens, UniProt Q9UGN5); assay: PARP2 fluorescence polarization binding assay; details: read-out: PARP2 % inh at 10 μM
recombinant human PARP2, sequence (Q9UGN5 whole entry): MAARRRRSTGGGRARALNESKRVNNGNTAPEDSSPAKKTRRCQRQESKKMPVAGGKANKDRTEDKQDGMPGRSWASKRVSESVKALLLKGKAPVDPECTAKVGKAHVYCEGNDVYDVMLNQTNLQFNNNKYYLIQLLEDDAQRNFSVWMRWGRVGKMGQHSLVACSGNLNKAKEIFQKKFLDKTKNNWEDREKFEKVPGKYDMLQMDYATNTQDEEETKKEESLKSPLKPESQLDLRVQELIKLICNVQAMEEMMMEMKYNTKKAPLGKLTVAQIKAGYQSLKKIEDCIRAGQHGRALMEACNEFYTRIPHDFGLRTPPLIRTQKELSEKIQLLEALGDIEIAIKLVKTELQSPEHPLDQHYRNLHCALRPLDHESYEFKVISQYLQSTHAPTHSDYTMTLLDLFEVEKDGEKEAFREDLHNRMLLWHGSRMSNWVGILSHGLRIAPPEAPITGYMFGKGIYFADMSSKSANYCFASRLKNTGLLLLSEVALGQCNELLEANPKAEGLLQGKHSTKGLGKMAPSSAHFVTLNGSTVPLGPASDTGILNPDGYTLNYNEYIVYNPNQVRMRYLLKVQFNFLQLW

[2] = system: DLD-1 BRCA2(−/−) colorectal adenocarcinoma cells; assay: Cell viability assay (Cell Titer-Glo, 7 days), DLD-1 BRCA2(−/−); type: cell-based; details: Homo sapiens, 168 h, DLD-1 BRCA2(−/−) cells
Description: as §1, §2

[3] = percent inhibition at 10 μM, fluorescence polarization, GST-tagged PARP2 20 nM, PARP1-FL probe 3 nM

Structure (SMILES)	IC50 (recombinant human PARP1)	inhibition at 10 µM (recombinant human PARP2; [3])	IC50 [2]	inhibition at 10 µM [1]	inhibition at 10 µM (recombinant human PARP2)
CCNC(=O)Nc1cc(CN2CCN(c3ccc(C(=O)NC)cc3F)CC2)ccn1 [Compound 31, 4-(4-((2-(3-ethylureido)pyridin-4-yl)methyl)piperazin-1-yl)-3-fluoro-N-methylbenzamide]	< 100 nM	< 33%	300 to 3000 nM	< 33%	–
CNC(=O)Nc1cc(CN2CCN(c3ccc(C(=O)NC)nc3C)CC2)ccn1 [Compound 42, N,6-dimethyl-5-(4-((2-(3-methylureido)pyridin-4-yl)methyl)piperazin-1-yl)picolinamide trifluoroacetate]	< 100 nM	–	< 300 nM	< 33%	< 33%
CNC(=O)c1ccc(N2CCN(Cc3ccnc(NC(=O)NC4CC4)c3)CC2)c(C)n1 [Compound 46, 5-(4-((2-(3-cyclopropylureido)pyridin-4-yl)methyl)piperazin-1-yl)-N,6-dimethylpicolinamide]	< 100 nM	< 33%	< 300 nM	< 33%	–
CCNC(=O)Nc1cc(CN2CCN(c3ccc(C(=O)NC)nc3C)CC2)c(C)cn1 [Compound 70, 5-(4-((2-(3-ethylureido)-5-methylpyridin-4-yl)methyl)piperazin-1-yl)-N,6-dimethylpicolinamide formate]	< 100 nM	–	< 300 nM	< 33%	< 33%
CCNC(=O)Nc1nccc(CN2CCN(c3ccc(C(=O)NC)nc3F)CC2)c1F [Compound 81, 5-(4-((2-(3-ethylureido)-3-fluoropyridin-4-yl)methyl)piperazin-1-yl)-6-fluoro-N-methylpicolinamide]	< 100 nM	< 33%	< 300 nM	< 33%	–
CCNC(=O)Nc1cc(CN2CCN(c3ccc(C(=O)NC)nc3F)CC2)ncn1 [Compound 229, 5-(4-((6-(3-ethylureido)pyrimidin-4-yl)methyl)piperazin-1-yl)-6-fluoro-N-methylpicolinamide formate]	< 100 nM	–	< 300 nM	< 33%	< 33%
CCNC(=O)Nc1cc(CN2CCN(c3ccc(C(=O)NC)nc3C)CC2)ncn1 [Compound 230, 5-(4-((6-(3-ethylureido)pyrimidin-4-yl)methyl)piperazin-1-yl)-N,6-dimethylpicolinamide formate]	< 100 nM	–	< 300 nM	< 33%	< 33%
CCNC(=O)Nc1ncc(CN2CCN(c3ccc(C(=O)NC)nc3C)CC2)s1 [Compound 242, 5-(4-((2-(3-ethylureido)thiazol-5-yl)methyl)piperazin-1-yl)-N,6-dimethylpicolinamide trifluoroacetate]	< 100 nM	–	300 to 3000 nM	< 33%	< 33%

More lines, main results first:

IC50 (recombinant human PARP1)	inhibition at 10 µM (recombinant human PARP2; [3])	IC50 [2]	Structure (SMILES)	inhibition at 10 µM [1]	inhibition at 10 µM (recombinant human PARP2)
< 100 nM	< 33%	< 300 nM	CNC(=O)c1ccc(N2CCN(Cc3ccnc(NC(=O)NCC(F)(F)F)c3)CC2)c(C)n1 [Compound 50, N,6-dimethyl-5-(4-((2-(3-(2,2,2-trifluoroethyl)ureido)pyridin-4-yl)methyl)piperazin-1-y) picolinamide trifluoroacetate]	< 33%	–
< 100 nM	< 33%	< 300 nM	CCNC(=O)Nc1nccc(CN2CCN(c3ccc(C(=O)NC)nc3C)CC2)c1F [Compound 82, 5-(4-((2-(3-ethylureido)-3-fluoropyridin-4-yl)methyl)piperazin-1-yl)-N,6-dimethylpicolinamide]	< 33%	–
100 to 3000 nM	< 33%	300 to 3000 nM	CCCC(=O)Nc1cc(CN2CCN(c3ccc(C(=O)NC)nc3C)CC2)ccn1 [Compound 161, 5-(4-((2-butyramidopyridin-4-yl)methyl)piperazin-1-y)-N,6-dimethylpicolinamide]	< 33%	–
100 to 3000 nM	< 33%	≥ 3000 nM	CCNC(=O)Nc1cccc(CN2CCN(c3ccc(C(=O)NC)nc3C)CC2)c1 [Compound 202, 5-(4-(3-(3-ethylureido)benzyl)piperazin-1-yl)-N,6-dimethyl picolinamide formate]	< 33%	–
